{"source": "patent US20110044938A1", "about": "(NYCOMED GMBH, priority 2006, published 2011)", "key": {"[1]": {"tested_on": "RKO (RKOp27) human colon adenocarcinoma cells", "experiment": "Alamar Blue cell viability assay, anti-proliferative/cytotoxic activity on proliferating RKO subclones", "type": "cell-based", "settings": "RKOp27, 72 h, RKO p27 uninduced (proliferating) cells, value = class bound given in Table A, read-out: −logIC50 RKO p27 uninduced (proliferating) (converted)", "summary_of_the_method": "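Alamar Blue fluorescence (ex 544, em 590 nm) after 72 h compound exposure at 37 °C, 5% CO2, normalised to untreated controls set at 100%. Cells were seeded at 5000 per well and dosed 24 h later with serial semi-logarithmic dilutions in 10% FCS DMEM, four replicates each. −log IC50 [mol/l] was derived from concentration-effect curves.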"}, "[2]": {"tested_on": "subclones of RKO colon adenocarcinoma cells (RKOp27 or RKOp21) arrested by Ponasterone A", "experiment": "Alamar Blue cell viability assay, cell cycle specific mode of action: cells arrested by ectopic p27Kip1 induced by Ponasterone A versus proliferating cells", "type": "cell-based", "settings": "Homo sapiens, RKO p27 induced (arrested) cells, 10 μM Ponasterone A, 72 hours, value = class bound given in Table A, read-out: −logIC50 RKO p27 induced (arrested) (converted)", "summary_of_the_method": "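Viability of proliferating versus Ponasterone A (10 μM)-arrested RKOp27/RKOp21 cells after 72 h compound exposure at 37° C, in quadruplicate. Read-out is Alamar Blue fluorescence (544/590 nm) normalised to untreated cells = 100%; values as −log IC50.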"}}}
{"molecule": "COc1cccc(C(C)CC(=O)Nc2sc3c(c2C#N)CCC(COC(=O)NC(C)c2ccnn2C)C3)c1", "note": "(stereo not shown) [Example 337, [1-(2-Methyl-2H-pyrazol-3-yl)-ethyl]-carbamic acid 3-cyano-2-[3-(3-methoxy-phenyl)-butanoylamino]-4,5,6,7-tetrahydro-benzo[b] thiophen-6-ylmethyl ester]", "values": [{"measurement": "IC50", "setting": "[1]", "value": "501 to 2000", "unit": "nM"}, {"measurement": "IC50", "setting": "[2]", "value": "≥ 50100", "unit": "nM"}]}
{"molecule": "COc1cccc(CCC(=O)Nc2sc3c(c2C#N)CCC(COC(=O)NCc2cc(C)on2)C3)c1", "note": "(stereo not shown) [Example 240, (5-Methyl-isoxazol-3-ylmethyl)-carbamic acid 3-cyano-2-[3-(3-methoxy-phenyl)-propanoylamino]-4,5,6,7-tetrahydro-benzo[b]thiophen-6-ylmethyl ester]", "values": [{"measurement": "IC50", "setting": "[1]", "value": "≤ 501", "unit": "nM"}, {"measurement": "IC50", "setting": "[2]", "value": "≥ 100000", "unit": "nM"}]}
{"molecule": "COc1cccc(CCC(=O)Nc2sc3c(c2C#N)CCC(OC(=O)NCc2cncn2C)C3)c1", "note": "(stereo not shown) [Example 265, (3-Methyl-3H-imidazol-4-ylmethyl)-carbamic acid 3-cyano-2-[3-(3-methoxy-phenyl)-propanoylamino]-4,5,6,7-tetrahydro-benzo[b]thiophen-6-yl ester]", "values": [{"measurement": "IC50", "setting": "[1]", "value": "≤ 501", "unit": "nM"}, {"measurement": "IC50", "setting": "[2]", "value": "≥ 50100", "unit": "nM"}]}
{"molecule": "CC(CC(=O)Nc1sc2c(c1C#N)CCC(COC(=O)N1CCCC1)C2)c1ccccn1", "note": "(stereo not shown) [Example 371, Pyrrolidine-1-carboxylic acid 3-cyano-2-(3-pyridin-2-yl-butanoylamino)-4,5,6,7-tetrahydro-benzo[b]thiophen-6-ylmethyl ester]", "values": [{"measurement": "IC50", "setting": "[1]", "value": "501 to 2000", "unit": "nM"}, {"measurement": "IC50", "setting": "[2]", "value": "≥ 50100", "unit": "nM"}]}
{"molecule": "CCN(CC)C(=O)OCC1CCc2c(sc(NC(=O)/C=C/c3cccnc3)c2C#N)C1", "note": "(stereo not shown) [Example 82, Diethyl-carbamic acid 3-cyano-2-((E)-3-pyridin-3-yl-allanoylamino)-4,5,6,7-tetrahydro-benzo[b]thiophen-6-ylmethyl ester]", "values": [{"measurement": "IC50", "setting": "[1]", "value": "≤ 501", "unit": "nM"}, {"measurement": "IC50", "setting": "[2]", "value": "≥ 100000", "unit": "nM"}]}
{"molecule": "N#Cc1c(NC(=O)/C=C/c2cccnc2)sc2c1CCC(OC(=O)N1CCC1)C2", "note": "(stereo not shown) [Example 80, Azetidine-1-carboxylic acid 3-cyano-2-((E)-3-pyridin-3-yl-allanoylamino)-4,5,6,7-tetrahydro-benzo[b]thiophen-6-yl ester]", "values": [{"measurement": "IC50", "setting": "[1]", "value": "≤ 501", "unit": "nM"}, {"measurement": "IC50", "setting": "[2]", "value": "≥ 100000", "unit": "nM"}]}
{"molecule": "Cn1cncc1CNC(=O)OCC1CCc2c(sc(NC(=O)/C=C/c3cccnc3)c2C#N)C1", "note": "(stereo not shown) [Example 43, (3-Methyl-3H-imidazol-4-ylmethyl)-carbamic acid 3-cyano-2-((E)-3-pyridin-3-yl-allanoylamino)-4,5,6,7-tetrahydro-benzo[b]thiophen-6-ylmethyl ester]", "values": [{"measurement": "IC50", "setting": "[1]", "value": "≤ 501", "unit": "nM"}, {"measurement": "IC50", "setting": "[2]", "value": "≥ 100000", "unit": "nM"}]}
{"molecule": "COc1cccc(C(C)CC(=O)Nc2sc3c(c2C#N)CCC(OC(=O)N2CCCC2)C3)c1", "note": "(stereo not shown) [Example 376, Pyrrolidine-1-carboxylic acid 3-cyano-2-(3-(3-methoxy-phenyl)-butanoylamino)-4,5,6,7-tetrahydro-benzo[b] thiophen-6-yl ester]", "values": [{"measurement": "IC50", "setting": "[1]", "value": "≤ 501", "unit": "nM"}, {"measurement": "IC50", "setting": "[2]", "value": "≥ 10000", "unit": "nM"}]}
{"molecule": "COCC1CCCN1C(=O)OCC1CCc2c(sc(NC(=O)/C=C/c3cccnc3)c2C#N)C1", "note": "(stereo not shown) [Example 89, 2-(Methoxymethyl) pyrrolidine-1-carboxylic acid 3-cyano-2-((E)-3-pyridin-3-yl-allanoylamino)-4,5,6,7-tetrahydro-benzo[b]thiophen-6-ylmethyl ester]", "values": [{"measurement": "IC50", "setting": "[1]", "value": "≤ 501", "unit": "nM"}, {"measurement": "IC50", "setting": "[2]", "value": "≥ 100000", "unit": "nM"}]}
{"molecule": "CCOc1ccccc1CCC(=O)Nc1sc2c(c1C#N)CCC(OC(=O)OCc1ccccc1)C2", "note": "(stereo not shown) [Example 154, Carbonic acid benzyl ester 3-cyano-2-[3-(2-ethoxy-phenyl)-propanoylamino]-4,5,6,7-tetrahydro-benzo[b]thiophen-6-yl ester]", "values": [{"measurement": "IC50", "setting": "[1]", "value": "501 to 2000", "unit": "nM"}, {"measurement": "IC50", "setting": "[2]", "value": "≥ 100000", "unit": "nM"}]}
{"molecule": "CCOc1ccccc1CCC(=O)Nc1sc2c(c1C#N)CCC(COC(=O)NCc1nccs1)C2", "note": "(stereo not shown) [Example 199, Thiazol-2-ylmethyl-carbamic acid 3-cyano-2-[3-(2-ethoxy-phenyl)-propanoylamino]-4,5,6,7-tetrahydro-benzo[b]thiophen-6-ylmethyl ester]", "values": [{"measurement": "IC50", "setting": "[1]", "value": "≤ 501", "unit": "nM"}, {"measurement": "IC50", "setting": "[2]", "value": "≥ 100000", "unit": "nM"}]}
